Laboratory results taken from PMC6783499, “Heteroglycoclusters With Dual Nanomolar Affinities for the Lectins LecA and LecB From Pseudomonas aeruginosa” (Frontiers in Chemistry, 2019).
Several values for one entry are separate records, joined by “and”; a condition that tells them apart may be missing. Equal entries are not always repeated.

Molecular target: T1, LecA (Pseudomonas aeruginosa, UniProt Q05097)
T1 construct: made in house; host or cells: Escherichia coli BL21(DE3)
Experiment: biochemical
Assay type: binding
Conditions: for –ΔH (binding enthalpy) / n (stoichiometry, glycocluster molecules per lectin monomer) / –ΔG / –ΔH / −TΔS: ITC; for n (stoichiometry, glycocluster molecules per lectin monomer) / –ΔG / –ΔH / −TΔS: 25°C; for n (stoichiometry, glycocluster molecules per lectin monomer): pH 7.5; for –ΔG / –ΔH / −TΔS: per mole of glycocluster; for α (relative potency compared to the monovalent compound) / β (relative potency per sugar unit): relative to βGal-OMe
Procedure: The resulting hGCs were tested in solution with lectins by Isothermal Titration Calorimetry (Table 1) and their binding properties were compared with homoclusters 15–20 (Berthet et al., [2013]; Thomas et al., [2015b]) displaying either 4 and 16 βGal or αFuc units attached with an oxime or a triazole linker (Figure 3). […] Experiments were performed in direct injection mode (i.e., ligand in syringe and protein in cell) to minimize aggregation problems.
All chemical reagents were purchased from Aldrich (Saint Quentin Fallavier, France) or Acros (Noisy-Le-Grand, France). All protected amino acids and Fmoc-Gly-Sasrin® resin was obtained from Advanced ChemTech Europe (Brussels, Belgium). For peptides and glycopeptides, analytical RP-HPLC was performed on Waters system equipped with a Waters 2695 separations module and a Waters 2487 Dual Absorbance UV/Visible Detector. Analysis was carried out at 1.0 mL/min (EC 125/3 nucleosil 300-5 C18) with UV monitoring at 214 nm and 250 nm using a linear A–B gradient (buffer A: 0.09% CF3CO2H in water; buffer B: 0.09% CF3CO2H in 90% acetonitrile). Purifications were carried out at 22.0 mL/min (VP 250/21 nucleosil 100-7 C18) with UV monitoring at 214 nm and 250 nm using a linear A–B gradient. HRMS and ESI-MS and HRMS spectra of peptides and glycopeptides were measured on an Esquire 3000 spectrometer from Bruker. Lectins LecA and LecB were produced in recombinant form in Escherichia coli BL21(DE3) as described previously (Mitchell et al., [2005]; Blanchard et al., [2008]).
Other compounds were assayed with a VP-ITC isothermal titration calorimeter (Microcal). The experiments were carried out at 25°C. All glycocompounds and lectins LecB and LecA were dissolved in the same buffer composed of 20 mM Tris with 100 mM NaCl and 0.1 mM CaCl2 at pH 7.5. For PEAQ-ITC, the lectins were placed in the microcalorimeter cell (200 μL) at concentrations varying from 35 to 70 μM. […] For VP-ITC, the microcalorimeter cell (1.447 mL) contained the lectins with concentrations between 30 and 100 μM. […] The experimental data were fitted to a theoretical titration curve using the Microcal PEAQ-ITC analysis software, with ΔH (enthalpy change), Ka (association constant), and N (number of binding sites per monomer) as adjustable parameters. Dissociation constant (Kd), free energy change (ΔG), and entropy contributions (TΔS) were derived from the previous ones. Two or three independent titrations were performed for each ligand tested.

T1 sequence (Q05097 whole entry): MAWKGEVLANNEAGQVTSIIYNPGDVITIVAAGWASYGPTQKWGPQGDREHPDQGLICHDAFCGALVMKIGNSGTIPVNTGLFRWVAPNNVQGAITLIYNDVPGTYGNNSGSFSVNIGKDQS

| Compound | Kd [µM] | –ΔH (binding enthalpy) (LecA) [kcal/mol] | n (stoichiometry, glycocluster molecules per lectin monomer) (LecA) | –ΔG (LecA) [kcal/mol] | –ΔH (LecA) [kcal/mol] | −TΔS (LecA) [kcal/mol] | α (relative potency compared to the monovalent compound) (LecA) | β (relative potency per sugar unit) (LecA) | lower β factor than 18 (LecA, 20 versus 18) | binding to LecA in words (LecA, abstract) |
| --- | --- | --- | --- | --- | --- | --- | --- | --- | --- | --- |
| C[C@@H]1NC(=O)[C@H](CCCCNC(=O)/C=N/O[C@H]2O[C@H](CO)[C@@H](O)[C@H](O)[C@@H]2O)NC(=O)CNC(=O)[C@@H]2CCCN2C(=O)[C@H](CCCCNC(=O)/C=N/O[C@H]2O[C@H](CO)[C@@H](O)[C@H](O)[C@@H]2O)NC(=O)[C@H](CCCCNC(=O)CO/N=C/C(=O)NCCCC[C@@H]2NC(=O)CNC(=O)[C@@H]3CCCN3C(=O)[C@H](CCCCNC(=O)/C=N/OCC(=O)NCCCC[C@@H]3NC(=O)[C@H](CCCCNC(=O)/C=N/O[C@H]4O[C@H](CO)[C@@H](O)[C@H](O)[C@@H]4O)NC(=O)CNC(=O)[C@@H]4CCCN4C(=O)[C@H](CCCCNC(=O)/C=N/O[C@H]4O[C@H](CO)[C@@H](O)[C@H](O)[C@@H]4O)NC(=O)[C@H](C)NC(=O)[C@H](CCCCNC(=O)/C=N/O[C@H]4O[C@H](CO)[C@@H](O)[C@H](O)[C@@H]4O)NC(=O)CNC(=O)[C@@H]4CCCN4C(=O)[C@H](CCCCNC(=O)/C=N/O[C@H]4O[C@H](CO)[C@@H](O)[C@H](O)[C@@H]4O)NC3=O)NC(=O)[C@H](CCCCN)NC(=O)[C@H](CCCCNC(=O)CO/N=C/C(=O)NCCCC[C@@H]3NC(=O)[C@H](CCCCn4cc(CO[C@@H]5O[C@H](CO)[C@H](O)[C@H](O)[C@H]5O)nn4)NC(=O)CNC(=O)[C@@H]4CCCN4C(=O)[C@H](CCCCn4cc(CO[C@@H]5O[C@H](CO)[C@H](O)[C@H](O)[C@H]5O)nn4)NC(=O)[C@H](C)NC(=O)[C@H](CCCCn4cc(CO[C@@H]5O[C@H](CO)[C@H](O)[C@H](O)[C@H]5O)nn4)NC(=O)CNC(=O)[C@@H]4CCCN4C(=O)[C@H](CCCCn4cc(CO[C@@H]5O[C@H](CO)[C@H](O)[C@H](O)[C@H]5O)nn4)NC3=O)NC(=O)CNC(=O)[C@@H]3CCCN3C(=O)[C@H](CCCCNC(=O)CO/N=C/C(=O)NCCCC[C@@H]3NC(=O)[C@H](CCCCn4cc(CO[C@@H]5O[C@H](CO)[C@H](O)[C@H](O)[C@H]5O)nn4)NC(=O)CNC(=O)[C@@H]4CCCN4C(=O)[C@H](CCCCn4cc(CO[C@@H]5O[C@H](CO)[C@H](O)[C@H](O)[C@H]5O)nn4)NC(=O)[C@H](C)NC(=O)[C@H](CCCCn4cc(CO[C@@H]5O[C@H](CO)[C@H](O)[C@H](O)[C@H]5O)nn4)NC(=O)CNC(=O)[C@@H]4CCCN4C(=O)[C@H](CCCCn4cc(CO[C@@H]5O[C@H](CO)[C@H](O)[C@H](O)[C@H]5O)nn4)NC3=O)NC(=O)[C@H](C)NC2=O)NC(=O)[C@H](CCCCNC(=O)/C=N/O[C@H]2O[C@H](CO)[C@@H](O)[C@H](O)[C@@H]2O)NC(=O)CNC(=O)[C@@H]2CCCN2C(=O)[C@H](CCCCNC(=O)/C=N/O[C@H]2O[C@H](CO)[C@@H](O)[C@H](O)[C@@H]2O)NC1=O [Compound 14] | 0.021 ± 0.004 | 51.6 to 58.1 | 0.16 | 10.5 | 58.13 ± 4.54 | 47.6 | 7,142 | 900 and 893 | – | – |
| C[C@@H]1NC(=O)[C@H](CCCCn2cc(CO[C@@H]3O[C@H](CO)[C@H](O)[C@H](O)[C@H]3O)nn2)NC(=O)CNC(=O)[C@@H]2CCCN2C(=O)[C@H](CCCCn2cc(CO[C@@H]3O[C@H](CO)[C@H](O)[C@H](O)[C@H]3O)nn2)NC(=O)[C@H](CCCCN)NC(=O)[C@H](CCCCn2cc(CO[C@@H]3O[C@H](CO)[C@H](O)[C@H](O)[C@H]3O)nn2)NC(=O)CNC(=O)[C@@H]2CCCN2C(=O)[C@H](CCCCn2cc(CO[C@@H]3O[C@H](CO)[C@H](O)[C@H](O)[C@H]3O)nn2)NC1=O [Compound 18] | – | – | 0.26 | 10.5 | 33.22 ± 0.24 | 22.8 | 7,000 and 6,818 | 1,700 and 1,705 | – | – |
| C[C@@H]1NC(=O)[C@H](CCCCNC(=O)/C=N/OCC(=O)NCCCC[C@@H]2NC(=O)[C@H](CCCCn3cc(CO[C@@H]4O[C@H](CO)[C@H](O)[C@H](O)[C@H]4O)nn3)NC(=O)CNC(=O)[C@@H]3CCCN3C(=O)[C@H](CCCCn3cc(CO[C@@H]4O[C@H](CO)[C@H](O)[C@H](O)[C@H]4O)nn3)NC(=O)[C@H](C)NC(=O)[C@H](CCCCn3cc(CO[C@@H]4O[C@H](CO)[C@H](O)[C@H](O)[C@H]4O)nn3)NC(=O)CNC(=O)[C@@H]3CCCN3C(=O)[C@H](CCCCn3cc(CO[C@@H]4O[C@H](CO)[C@H](O)[C@H](O)[C@H]4O)nn3)NC2=O)NC(=O)CNC(=O)[C@@H]2CCCN2C(=O)[C@H](CCCCNC(=O)/C=N/OCC(=O)NCCCC[C@@H]2NC(=O)[C@H](CCCCn3cc(CO[C@@H]4O[C@H](CO)[C@H](O)[C@H](O)[C@H]4O)nn3)NC(=O)CNC(=O)[C@@H]3CCCN3C(=O)[C@H](CCCCn3cc(CO[C@@H]4O[C@H](CO)[C@H](O)[C@H](O)[C@H]4O)nn3)NC(=O)[C@H](C)NC(=O)[C@H](CCCCn3cc(CO[C@@H]4O[C@H](CO)[C@H](O)[C@H](O)[C@H]4O)nn3)NC(=O)CNC(=O)[C@@H]3CCCN3C(=O)[C@H](CCCCn3cc(CO[C@@H]4O[C@H](CO)[C@H](O)[C@H](O)[C@H]4O)nn3)NC2=O)NC(=O)[C@H](CCCCN)NC(=O)[C@H](CCCCNC(=O)/C=N/OCC(=O)NCCCC[C@@H]2NC(=O)[C@H](CCCCn3cc(CO[C@@H]4O[C@H](CO)[C@H](O)[C@H](O)[C@H]4O)nn3)NC(=O)CNC(=O)[C@@H]3CCCN3C(=O)[C@H](CCCCn3cc(CO[C@@H]4O[C@H](CO)[C@H](O)[C@H](O)[C@H]4O)nn3)NC(=O)[C@H](C)NC(=O)[C@H](CCCCn3cc(CO[C@@H]4O[C@H](CO)[C@H](O)[C@H](O)[C@H]4O)nn3)NC(=O)CNC(=O)[C@@H]3CCCN3C(=O)[C@H](CCCCn3cc(CO[C@@H]4O[C@H](CO)[C@H](O)[C@H](O)[C@H]4O)nn3)NC2=O)NC(=O)CNC(=O)[C@@H]2CCCN2C(=O)[C@H](CCCCNC(=O)/C=N/OCC(=O)NCCCC[C@@H]2NC(=O)[C@H](CCCCn3cc(CO[C@@H]4O[C@H](CO)[C@H](O)[C@H](O)[C@H]4O)nn3)NC(=O)CNC(=O)[C@@H]3CCCN3C(=O)[C@H](CCCCn3cc(CO[C@@H]4O[C@H](CO)[C@H](O)[C@H](O)[C@H]4O)nn3)NC(=O)[C@H](C)NC(=O)[C@H](CCCCn3cc(CO[C@@H]4O[C@H](CO)[C@H](O)[C@H](O)[C@H]4O)nn3)NC(=O)CNC(=O)[C@@H]3CCCN3C(=O)[C@H](CCCCn3cc(CO[C@@H]4O[C@H](CO)[C@H](O)[C@H](O)[C@H]4O)nn3)NC2=O)NC1=O [Compound 20] | – | 90.3 | 0.09 | 10.7 | 90.49 ± 3.59 | 79.78 | 10,000 and 10,714 | 670 | 2.5 | nanomolar affinity |
| CO[C@@H]1O[C@H](CO)[C@H](O)[C@H](O)[C@H]1O [βGal-OMe, methyl β-D-galactoside] | – | – | – | – | – | – | 1 | 1 | – | – |
